Measurements: US20050222253A1, “Anti-cancer nitro- and thia-fatty acids” (priority 1999, published 2005)
“Also recorded” adds a separate entry of the source. One block for each compound: values may come before it.

Experiments:
15-LO [1] = target: T1, 15-LO (Glycine max, UniProt P08170); assay: Effect on 15-LO catalysed oxidation of arachidonic acid; format: biochemical, soybean; details: preliminary experiment, result in words
T1 construct: purchased Sigma Chemical Company
T1 sequence (P08170 1-839): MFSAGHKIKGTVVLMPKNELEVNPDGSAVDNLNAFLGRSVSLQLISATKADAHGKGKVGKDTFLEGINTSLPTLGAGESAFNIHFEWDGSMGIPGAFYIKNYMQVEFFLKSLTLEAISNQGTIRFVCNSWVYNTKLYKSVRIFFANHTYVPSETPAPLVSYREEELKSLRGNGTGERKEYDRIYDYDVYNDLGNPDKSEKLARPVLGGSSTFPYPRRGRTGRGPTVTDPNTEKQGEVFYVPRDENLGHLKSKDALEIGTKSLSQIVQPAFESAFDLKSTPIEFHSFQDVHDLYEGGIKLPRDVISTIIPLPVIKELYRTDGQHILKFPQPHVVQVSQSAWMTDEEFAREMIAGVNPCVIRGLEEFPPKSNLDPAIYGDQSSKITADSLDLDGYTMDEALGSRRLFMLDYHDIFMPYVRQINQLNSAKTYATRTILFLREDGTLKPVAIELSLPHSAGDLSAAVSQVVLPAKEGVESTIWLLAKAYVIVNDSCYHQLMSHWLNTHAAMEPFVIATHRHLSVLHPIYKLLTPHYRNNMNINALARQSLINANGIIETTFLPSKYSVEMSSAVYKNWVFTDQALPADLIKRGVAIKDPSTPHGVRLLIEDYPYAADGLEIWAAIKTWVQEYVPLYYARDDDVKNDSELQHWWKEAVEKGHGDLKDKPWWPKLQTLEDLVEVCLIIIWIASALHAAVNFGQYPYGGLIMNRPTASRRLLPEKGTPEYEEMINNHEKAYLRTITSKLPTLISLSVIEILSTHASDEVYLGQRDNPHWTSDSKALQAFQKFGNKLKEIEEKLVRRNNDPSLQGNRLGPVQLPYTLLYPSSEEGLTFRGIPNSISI

DU145 cells = assay: DU145 tumour cell survival (MTS cell proliferation assay); format: cell-based, human; details: for Anti tumour effect on DU145 tumour cells: various concentrations and times (FIGS. 1, 2); for DU145 cell proliferation: 24 h, MTS assay (FIG. 5A)
Method: Lx compounds were tested for activity against two androgen insensitive prostate cancer tumour cell lines, DU145(liver metastases) and PC3(brain metastases). […] Survival was measured using the MTS cell proliferation assay.
Various concentrations for varying amounts of time of Lx compounds were added to either DU145 or PC3 tumour cells in culture. Viability/death of tumour cells was measured by a standard colourimetric assay. […] It is also evident from the results (FIG. 2) that the saturated nitro compound Lx1 (19:0-NO2) is not active and neither is MP2 (β-thia 23:0), a saturated […] fatty acid. […] In a further screening test, the human prostate cell line, DU145 cells (liver metastases), was treated for 24 hrs with 20 μM Fatty Acid and cell survival was measured using the MTS cell proliferation assay. This assay uses colourimetric measurement of substrate conversion to formazan which occurs only in the presence of NADH in a metabolically active cell. There was varied anti-tumour activity amongst the different types of PUFA.
(§1) DU145 cells were treated with PUFA and incubated for 24 h (for the proliferation assay), 4 h (for the caspase assay) and for 18 h (for PARP cleavage).
(§2) Proliferation was quantitated by MTS assay. Caspases 3 and 7 were assayed by a fluorometric assay using a […] substrate. PARP cleavage was measured by Western blots using an anti PARP antibody.

5-LO [2] = target: T2, 5-LO (Solanum tuberosum, UniProt P37831); assay: Effect on 5-LO catalysed oxidation of arachidonic acid; format: biochemical; details: preliminary experiment, purified enzyme, result in words
Method: Based on this consideration, 5-LO, 12-LO and 15-LO catalysed oxidation of the nitro compounds (4a, 4b, 6a, 6b, 8a and 8b) was investigated. Each of the nitro compounds was treated with 15-LO in pH 9.0 buffer (or 5-LO in pH 6.3 buffer and 12-LO in pH 7.4 buffer), and the formation of 15-hydroperoxy derivatives (or 5-hydroperoxy or 12-hydroperoxy derivatives) over time was monitored by LW spectroscopy at 234 nm. […]

12-LO [3] = target: T3, 12-LO (Sus scrofa, UniProt P16469); assay: Effect on 12-LO catalysed oxidation of arachidonic acid; format: biochemical, porcine; details: preliminary experiment, result in words
T3 construct: purchased Cayman Chemical Company
T3 sequence (P16469 1-663): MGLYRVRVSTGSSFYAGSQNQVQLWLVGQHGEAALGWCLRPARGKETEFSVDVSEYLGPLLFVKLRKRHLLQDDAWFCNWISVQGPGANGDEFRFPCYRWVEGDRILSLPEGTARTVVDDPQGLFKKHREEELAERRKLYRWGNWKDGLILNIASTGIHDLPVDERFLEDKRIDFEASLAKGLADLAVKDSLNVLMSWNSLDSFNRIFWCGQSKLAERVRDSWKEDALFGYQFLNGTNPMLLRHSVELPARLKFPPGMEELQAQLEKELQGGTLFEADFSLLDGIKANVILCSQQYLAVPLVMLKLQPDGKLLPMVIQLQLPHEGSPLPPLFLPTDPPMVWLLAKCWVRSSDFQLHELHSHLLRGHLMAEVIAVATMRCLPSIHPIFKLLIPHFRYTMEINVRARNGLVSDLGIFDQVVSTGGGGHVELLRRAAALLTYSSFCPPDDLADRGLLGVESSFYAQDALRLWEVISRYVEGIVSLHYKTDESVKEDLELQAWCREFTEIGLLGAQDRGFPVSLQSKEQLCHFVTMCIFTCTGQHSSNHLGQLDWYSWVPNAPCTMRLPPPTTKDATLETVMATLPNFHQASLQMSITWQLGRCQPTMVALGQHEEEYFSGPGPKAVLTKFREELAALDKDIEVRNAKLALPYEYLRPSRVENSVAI
Method: (§3) Based on this consideration, 5-LO, 12-LO and 15-LO catalysed oxidation of the nitro compounds (4a, 4b, 6a, 6b, 8a and 8b) was investigated. Each of the nitro compounds was treated with 15-LO in pH 9.0 buffer (or 5-LO in pH 6.3 buffer and 12-LO in pH 7.4 buffer), and the formation of 15-hydroperoxy derivatives (or 5-hydroperoxy or 12-hydroperoxy derivatives) over time was monitored by LW spectroscopy at 234 nm.
A number of Lx compounds were tested for anti 5-LOX and 12-LOX activities in the human breast cancer cell line, MCF-7. […] The ability of 5-LOX and 12-LOX to produce oxidated products of 20:4n-6 with a different absorption wavelength in the presence of nitroso-PUFA was examined and is shown in the progress curves in FIG. 6. […] Within cells, activation of 5-LOX is facilitated by 5-LOX activating protein (FLAP). Thus, in intact cells, Lx7 and Lx9 may be able to activate 5-LOX at lower concentrations than those required in the purified enzyme system shown in FIG. 6. […] By being able to activate 5-LOX and suppress 12-LOX, these compounds have the desired characteristics of anti-breast cancer agents as discussed previously.
15-LO was obtained from Sigma Chemical Company, and 12-LO from Cayman Chemical Company. Arachidonic acid 1, linolenyl alcohol 57a, gamma linolenyl alcohol 5b, arachidonyl alcohol 57c and docosahexaenyl alcohol 57d were purchased from Nu-Chek Prep. Inc. Elysian, Minn., USA. Other chemicals were commercially available from Aldrich Chemical Company.

MCF-7 cells = assay: Killing of MCF-7 breast cancer cells in vitro; format: cell-based, human; details: in vitro (FIG. 7); compared with 20:4n-6 toxicity
Description: While interference with 5-LOX or 12-LOX activity individually impacts on growth rates of human breast cancer MCF-7 cells^(55,56), the simultaneous modification of the activities of both enzymes at once may cause death. […] Lx4, a nitroso-compound with the same number of carbon atoms and degree of unsaturation as Lx9 but lacking a COOH group, was ineffective (FIG. 7).

5-LO [4] = target: T2, 5-LO; assay: 5-LO catalysed oxidation of the nitro compounds (substrate test); format: biochemical; details: pH 6.3 buffer, 234 nm
Method: as §3

12-LO [5] = target: T3, 12-LO; assay: 12-LO catalysed oxidation of the nitro compounds (substrate test); format: biochemical, porcine; details: pH 7.4 buffer, 234 nm
Method: as §3

15-LO [6] = target: T1, 15-LO; assay: 15-LO catalysed oxidation of the nitro compounds (substrate test); format: biochemical, soybean; details: pH 9.0 buffer, 234 nm
Method: as §3

Caspases 3 and 7 = assay: Caspase 3 and 7 fluorometric assay in DU145 cells; format: cell-based, human; details: for Activation of caspases: DU145 cells, 4 h (FIG. 5B); for Induction of apoptosis in DU145 cells: concluded from caspase activation and PARP cleavage
Method: as §1, §2

PARP = PARP cleavage by Western blot in DU145 cells; format: cell-based, human; details: 18 h, anti PARP antibody (FIG. 5C)
Method: as §1, §2

[7] = listed as (all-Z)-1-nitrotricosa-8,11,14,17-tetraenoic acid

T2 sequence (P37831 whole entry): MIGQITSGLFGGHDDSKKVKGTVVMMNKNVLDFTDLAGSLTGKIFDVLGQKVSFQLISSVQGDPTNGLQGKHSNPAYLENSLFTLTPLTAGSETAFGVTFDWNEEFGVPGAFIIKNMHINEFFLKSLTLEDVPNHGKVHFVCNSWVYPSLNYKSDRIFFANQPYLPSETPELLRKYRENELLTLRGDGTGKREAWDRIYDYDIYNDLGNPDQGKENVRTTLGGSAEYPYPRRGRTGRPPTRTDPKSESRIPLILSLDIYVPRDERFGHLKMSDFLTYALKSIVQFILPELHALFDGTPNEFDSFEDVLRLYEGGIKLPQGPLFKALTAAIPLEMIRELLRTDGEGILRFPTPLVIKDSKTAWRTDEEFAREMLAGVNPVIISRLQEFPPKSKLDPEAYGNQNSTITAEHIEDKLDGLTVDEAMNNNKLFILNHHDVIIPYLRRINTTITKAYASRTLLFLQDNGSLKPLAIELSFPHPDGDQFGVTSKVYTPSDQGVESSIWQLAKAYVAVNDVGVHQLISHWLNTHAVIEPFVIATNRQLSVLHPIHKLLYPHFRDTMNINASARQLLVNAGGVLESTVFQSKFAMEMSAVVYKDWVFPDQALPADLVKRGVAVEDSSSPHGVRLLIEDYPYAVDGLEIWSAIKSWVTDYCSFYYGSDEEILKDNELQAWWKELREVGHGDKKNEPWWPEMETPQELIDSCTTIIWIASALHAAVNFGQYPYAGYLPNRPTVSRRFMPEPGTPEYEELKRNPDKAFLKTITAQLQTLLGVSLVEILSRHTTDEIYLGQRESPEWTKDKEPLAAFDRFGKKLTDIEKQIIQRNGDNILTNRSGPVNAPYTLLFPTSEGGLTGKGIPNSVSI

melting point: 166 to 167 °C
Structure (SMILES): CCCCCCCCCCCCCC[S+]([O-])CCC(=O)O (stereo not drawn) [Compound 113, 3-(tetradecylsulfinyl) propionic acid]

Structure (SMILES): CCCCCCCCCCCCCCCCCC[N+](=O)[O-] [Lx1, 1-Nitrooctadecane]
Effect on 15-LO catalysed oxidation of AA (15-LO [1]): Nil | Anti tumour effect on DU145 tumour cells (DU145 cells): not active | Effect on 5-LO catalysed oxidation of AA (5-LO [2]): Nil | Effect on 12-LO catalysed oxidation of AA (12-LO [3]): Nil

Structure (SMILES): CCCCC/C=C\C/C=C\C/C=C\C/C=C\CCCC[N+](=O)[O-] [Lx4, (all-z)-1-Nitro-5,8,11,14-eicosatetraene]
Effect on 15-LO catalysed oxidation of AA (15-LO [1]): Nil | Effect on 5-LO catalysed oxidation of AA (5-LO [2]): Nil | Effect on 12-LO catalysed oxidation of AA (12-LO [3]): Nil | Killing of MCF-7 tumour cells (MCF-7 cells): ineffective

Structure (SMILES): CCCCCCCCCCCCCCCCCC(CCC(=O)O)[N+](=O)[O-] (stereo not drawn) [Lx6, 4-Nitrohenicosanoic acid]
Effect on 15-LO catalysed oxidation of AA (15-LO [1]): Activatory | Effect on 15-LO catalysed oxidation of AA (15-LO [1]; listed as 6a): not 15-LO | Killing of DU145 tumour cells (DU145 cells; 15 μM, after 24 hours of culture (FIG. 2)): killing of all the tumour cell population | Anti tumour effect on DU145 tumour cells (DU145 cells): concentration and time related effects | Effect on 5-LO catalysed oxidation of AA (5-LO [2]): Inhibitory | Effect on 5-LO catalysed oxidation of AA (5-LO [2]; listed as 4-nitrohenicosanoic acid): selective inhibitors | Effect on 5-LO catalysed oxidation of AA (5-LO [2]; listed as 6a): inhibiting 5-LO | Effect on 12-LO catalysed oxidation of AA (12-LO [3]): Activatory

Structure (SMILES): CCCCC/C=C\C/C=C\C/C=C\C/C=C\CCCC(CCC(=O)O)[N+](=O)[O-] (stereo not drawn) [Lx7, (all-Z)-4-Nitrotricosa-8,11,14,17-tetraenoic acid]
Effect on 15-LO catalysed oxidation of AA (15-LO [1]): Substrate | Substrate for 5-LO (formation of 5-hydroperoxy derivative) (5-LO [4]): not for 5-LO | Effect on 5-LO catalysed oxidation of AA (5-LO [2]): can activate 5-LOX; also recorded: Activatory | Substrate for 12-LO (formation of 12-hydroperoxy derivative) (12-LO [5]): substrate for 12-LOX | Substrate for 12-LO (formation of 12-hydroperoxy derivative) (12-LO [5]; listed as 6b): served as a substrate | Substrate for 12-LO (formation of 12-hydroperoxy derivative) (12-LO [5]; [7]): good substrate | Effect on 12-LO catalysed oxidation of AA (12-LO [3]): Substrate | Substrate for 15-LO (formation of 15-hydroperoxy derivative) (15-LO [6]; listed as 6b): served as a substrate | Substrate for 15-LO (formation of 15-hydroperoxy derivative) (15-LO [6]; [7]): good substrate; also recorded: comparable to that of arachidonic acid | Killing of MCF-7 tumour cells (MCF-7 cells): kill these tumour cells

Structure (SMILES): CCCCC/C=C\C/C=C\C/C=C\C/C=C\CCCC(CCC(=O)O)(CCC(=O)O)[N+](=O)[O-] [Lx9, 3-[(all-Z)-Nonadeca-4,7,10,13-tetraenyl]-3-nitropentane-1,5-dicarboxylic acid]
Effect on 15-LO catalysed oxidation of AA (15-LO [1]): Nil | Effect on 5-LO catalysed oxidation of AA (5-LO [2]): can activate 5-LOX; also recorded: Activatory | Effect on 12-LO catalysed oxidation of AA (12-LO [3]): direct, potent and rapid inhibitor of 12-LOX; also recorded: Inhibitory | Effect on 12-LO catalysed oxidation of AA (12-LO [3]; listed as 3-(all-Z)-nonadeca-4,7,10,13-tetraenyl]-3-nitropentane-1,5-dicarboxylic acid): selective inhibitors | Effect on 12-LO catalysed oxidation of AA (12-LO [3]; listed as 8b): significant inhibitory effect | Killing of MCF-7 tumour cells (MCF-7 cells): kill these tumour cells

Structure (SMILES): CCCCC/C=C\C/C=C\C/C=C\C/C=C\CCCCOCC(=O)O [MP3]
Activation of caspases (Caspases 3 and 7): activation of caspases | Induction of apoptosis in DU145 cells (Caspases 3 and 7): induce apoptosis | DU145 cell survival, screening test (DU145 cells; 20 μM fatty acid, 24 hrs, MTS (FIG. 4)): highly active | DU145 cell proliferation (DU145 cells): marked inhibition of cell proliferation | PARP cleavage (PARP): cleavage of PARP

Structure (SMILES): CC/C=C\C/C=C\C/C=C\CCCCCCCCOCC(=O)O [MP5, (Z,Z,Z)-(octadeca-9,12,15-trienyloxy) acetic acid]
Activation of caspases (Caspases 3 and 7): activation of caspases | Induction of apoptosis in DU145 cells (Caspases 3 and 7): induce apoptosis | DU145 cell proliferation (DU145 cells): marked inhibition of cell proliferation | PARP cleavage (PARP): cleavage of PARP
